The values below come from US11684598B2, “Use of cannabinoids in the treatment of epilepsy” (priority 2015, dated 2023).

The IC50 is the point on the concentration scale where inhibition reaches its midpoint.

Structures are written as SMILES.

In experiment [1] the test system is PTZ-induced generalised seizures. The experiment can be described thus: Acute PTZ-induced model of generalised seizure. It counts as in vivo, rat. How it is done: Adult male Wistar Kyoto rats were used in the acute PTZ model of seizure (>P24, 70-110 g). Animals were housed five per cage in a heat regulated room (21° C.) on a 12:12 h day/night cycle (lights on 0800) in 50% humidity and given ad libitum access to standard laboratory chow (PCD Mod C, Special Diet Services, Wiltham, UK) and water. All procedures were undertaken during white light hours.
A PTZ (Sigma-Aldrich, Poole, UK) stock solution was made in 0.9% w/v NaCl for the experimental procedure.
PTZ antagonises GABA inhibition via binding to the t-butyl-bicycl-phosphorothionate site of GABAA receptors. Moreover, this chemically-induced model can be indicative of effects against absence seizures. PTZ (90 mg/kg) was used to induce seizures in adult male Wistar rats (n=15 per group) with experiment dose randomised using a Latin square design. Animals were placed in their 6 L Perspex tanks and allowed to acclimatise to their environment for 10 min, before receiving one of the cannabinoid doses (see Table 5) in vehicle, or volume-matched dose of vehicle alone to serve as a negative control. 60 min after test compound or vehicle administration, animals were injected with PTZ (90 mg/kg, i.p.) to induce seizures and animal behaviour was recorded for 30 min.
Videos of PTZ-induced seizures were scored offline with a standard seizure severity scale appropriate for generalised seizures (Table 6).
Videos of seizure behaviour generated from the custom built observational system were scored offline according to seizure scales appropriate for PTZ model (Table 6) using Observer Video-Pro software (Noldus, Wageningen, The Netherlands). For the PTZ model of seizure, intra- and inter-observer agreements of behaviour scoring were assessed using the reliability analysis function of the observer Video-Pro software: 1 s tolerance window; Cohen's Kappa coefficient≥0.95.
Specific markers of seizure behaviour and development were assessed and compared between vehicle control and drug groups. The latency (s) to seizure onset and the percentage of animals that developed tonic-clonic seizures was noted (see Table 6). In addition, the maximum seizure severity and the percentage mortality in each group were determined for the acute PTZ model of generalised seizure.
The effect of drug on latency to seizure onset and maximum seizure severity were assessed using Krustal-Wallis with post-hoc Mann-Whitney U-tests. Drug effects on the percentage of animals that developed tonic-clonic seizures and percentage mortality were assessed using Chi-squared with post-hoc Fisher exact tests. In all cases, P≤0.05 was considered significant.

The test system of experiment [2] is D. discoideum cell growth. The experiment can be described thus: D. discoideum growth assay. It counts as cell-based, Dictyostelium discoideum. How it is done:
Wild type (A×2) D. discoideum cells were grown in shaking culture (in HL5 medium) for two days prior to growth assays. Cells (9900 in 495 μl of media) were added to each well of a 24 well plate and 5 μl of cannabinoid in DMSO (or DMSO only) was added to each well to achieve each described concentration (1% final DMSO concentration), and cells were maintained at 22° C. Cells were counted at 72 hours, and then every 24 hours. Quadruplicate repeats were used for each concentration.

Experiment [3] deals with D. discoideum development. Put plainly: D. discoideum development assay. It counts as cell-based, Dictyostelium discoideum. As to conditions: 20 μM, 24 h on nitrocellulose filter. How it is done:
Wild type (A×2) D. discoideum cells were grown in HL5 shaking culture for two days prior to development assay. Cells were washed in phosphate buffer (KK2; 20 mM Potassium phosphate buffer, pH 6.1), and 1×10^7 cells were spread onto nitrocellulose filters (Millipore, Cork). Absorbent pads (Millipore, Cork), divided into quarters, were placed in 2 ml culture dishes and soaked with 0.5 ml KK2 containing the cannabinoids at 20 μM. 1 mM Valproic acid was used as a positive control while KK2 containing 1% DMSO was used as a solvent only control. Nitrocellulose filters containing cells were quartered and place upon absorbent pads and maintained in a humid environment at 22° C. for 24 h. Fruiting body morphology was recorded using a dissection microscope and camera.

Experiment [4] relates to D. discoideum growth upon R. planticola bacterial plates. Put plainly: Bacterial plate screen. It counts as cell-based, Dictyostelium discoideum. The following applies: CBDA 12.3 μM, CBD 16.7 μM; 4 days. How it is done: Heat killed (75° C. for 30 minutes) R. planticola was spread onto the plates and ˜50 wild-type A×2 cells were added and left to grow at 22° C. Plates were checked regularly for colonies.

Experiment [5] relates to seizures. The following applies: mice, after pro-convulsant drugs or an electric current; cited from earlier work.
In experiment [6] the test system is generalized epilepsy. As to conditions: eight adult patients with generalized epilepsy; cited from earlier work.
The subject of experiment [7] is seizures. As to conditions: 200 mg/day pure CBD, four adult patients; cited from earlier work.

In the case of `C=C(C)[C@@H]1CCC(C)=C[C@H]1c1c(O)cc(CCCCC)cc1O` [CBD, Cannabidiol], the “effect on percentage mortality” value in experiment [1] (100 mg/kg CBD (P≤0.01), 100 mg/kg CBDA (P=0.0656), CBD/CBDA ratio (P=0.0656)) is “significantly reduced”. Moreover, the “effect on latency to seizure onset” value in experiment [1] (100 mg/kg CBD (P≤0.05), CBD/CBDA 9:1 (P≤0.05), CBDA 100 mg/kg (P=0.0929)) is reported as “significantly increasing latency to onset”. Moreover, the “median score for the maximum seizure severity” value in experiment [1] (100 mg/kg, PTZ 90 mg/kg i.p. 60 min after compound, scale of Table 6, n=15) is 5. For the same compound, the IC50 in experiment [2] (Dictyostelium discoideum, secondary plot of cell density at 144 hours, read-out: growth inhibitory constant (IC50)) amounted to 1630 nM. For the same compound, in experiment [2] (growth over one week), the concentration blocking growth stood at 20 µM and the “concentration significantly inhibiting cell growth (P<0.05)” value was determined as 0.5 µM. The “effect on development (fruiting body morphology)” value in experiment [3] is “able to aggregate and develop to form mature fruiting bodies”. Also, the “cell survival (colony number) compared to control (solvent only)” value in experiment [4] was “No difference in colony number”. The prevention of seizures entry in experiment [5] is recorded as “able to prevent seizures in mice”. Moreover, in experiment [6], the reduction of seizures result is recorded as “marked reduction of seizures in 4 of the patients”. In experiment [7], the seizure freedom result was “two of the four patients became seizure free”.
